Source: patent US8871767B2, “2-arylimidazo[1,2-B]pyridazine, 2-phenylimidazo[1,2-A]pyridine, and 2-phenylimidazo[1,2-A]pyrazine derivatives” (Hengrui (USA) Ltd., priority 2010, dated 2014)
Where two headings read alike, the source gives them in different places.

Tests used:
[1] = test system: Hedgehog pathway activation on 10T1/2/Smo#3 cells (C3H10T1/2 cells transfected with human Smoothened receptor); test: Hedgehog pathway activation on 10T1/2/Smo#3 cells measured by ALP activity; format: cell-based; settings: Mus musculus, C3H 10T1/2, 10T1/2/Smo#3 cells
In short: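 C3H10T1/2 cells stably expressing human Smoothened were activated with hShh-conditioned medium (10-20%) or 500 nM SAG, with test compounds present. Pathway block read as inhibited ALP activity (4-methylumbelliferyl phosphate fluorescence); viability checked by CellTiter-Blue. IC50 values reported.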

[2] = test system: Hedgehog pathway activation (GLi-luciferase reporter) in Shh Light II reporter cells; test: Hedgehog pathway activation on Shh Light II reporter cells measured by luciferase activity; format: cell-based; settings: Mus musculus, Shh Light II
In short: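 Shh Light II reporter cells carrying a hedgehog-responsive GLi-luciferase reporter were stimulated either with 500 nM SAG, a direct Smoothened agonist, or with conditioned media containing human Sonic Hedgehog (hShh). Test compounds were evaluated for blocking this pathway activation, quantified by luciferase activity. Cell viability was monitored in parallel with the Celltiter-Blue® assay.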

[3] = hShh activation, ALP activity, read-out: 10T1/2/Smo#3 ALP activity (hShh Activation)
[4] = SAG activation (500 nM SAG), read-out: Shh Light II luciferase activity (SAG activation)
[5] = hShh activation, read-out: Shh (IC50, inhibition of Hedgehog pathway activation)
[6] = hShh activation, read-out: Shh Light II luciferase activity (hShh activation)
[7] = measured by ALP activity, read-out: ALP (IC50, inhibition of Hedgehog pathway activation)

SMILES | IC50 [1, 3] | IC50 [2, 4] | IC50 [2, 5] | IC50 [2, 6] | IC50 [1, 7]
CC(C)(C)C(=O)Nc1cc(-c2cn3nc(Cc4ccccc4)ccc3n2)ccc1C(F)(F)F [Example 231, N-(5-(6-benzylimidazo[1,2-b]pyridazin-2-yl)-2-(trifluoromethyl)phenyl)pivalamide] | 300 to 3000 nM | 3000 to 30000 nM | 905 nM | 300 to 3000 nM | –
CC(C)(C)C(=O)Nc1cc(-c2cn3nc(N4CCOCC4)ccc3n2)ccc1C(F)(F)F [Example 232, N-(5-(6-morpholinoimidazo[1,2-b]pyridazin-2-yl)-2-(trifluoromethyl)phenyl)pivalamide] | – | – | 428 nM | – | 414 nM
CC1CCN(c2ccc3nc(-c4ccc(C(F)(F)F)c(NC(=O)C(C)(C)C)c4)cn3n2)CC1 [Example 233, N-(5-(6-(4-methylpiperidin-1-yl)imidazo[1,2-b]pyridazin-2-yl)-2-(trifluoromethyl)phenyl)pivalamide] | – | – | 329 nM | – | 339 nM
CC(C)(C)C(=O)Nc1cc(-c2cn3nc(-c4cccc(O)c4)ccc3n2)ccc1C(F)(F)F [Example 242, N-(5-(6-(3-hydroxyphenyl)imidazo[1,2-b]pyridazin-2-yl)-2-(trifluoromethyl)phenyl)pivalamide] | – | – | 402 nM | – | 446 nM
COc1ccc(-c2ccc3nc(-c4ccc(C(F)(F)F)c(NC(=O)C(C)(C)C)c4)cn3n2)cc1 [Example 244, N-(5-(6-(4-methoxyphenyl)imidazo[1,2-b]pyridazin-2-yl)-2-(trifluoromethyl)phenyl)pivalamide] | – | – | 308 nM | – | 1630 nM
COc1ccc2nc(-c3ccc(OC(F)(F)F)c(NC(=O)C(C)(C)C)c3)cn2n1 [Example 247, N-(5-(6-methoxyimidazo[1,2-b]pyridazin-2-yl)-2-(trifluoromethoxy)phenyl)pivalamide] | < 300 nM | < 300 nM | – | < 300 nM | 1860 nM
CC(C)Oc1ccc(F)c(-c2ccc3nc(-c4ccc(C(F)(F)F)c(NC(=O)C(C)(C)C)c4)cn3n2)c1 [Example 252, N-(5-(6-(2-fluoro-5-isopropoxyphenyl)imidazo[1,2-b]pyridazin-2-yl)-2-(trifluoromethyl)phenyl)pivalamide] | – | – | 722 nM | – | 392 nM
CCCOc1ccc(F)c(-c2ccc3nc(-c4ccc(C(F)(F)F)c(NC(=O)C(C)(C)C)c4)cn3n2)c1 [Example 253, N-(5-(6-(2-fluoro-5-propoxyphenyl)imidazo[1,2-b]pyridazin-2-yl)-2-(trifluoromethyl)phenyl)pivalamide] | – | – | 899 nM | – | 448 nM
CC(=O)Nc1ccccc1-c1ccc2nc(-c3ccc(C(F)(F)F)c(NC(=O)C(C)(C)C)c3)cn2n1 [Example 255, N-(5-(6-(2-acetamidophenyl)imidazo[1,2-b]pyridazin-2-yl)-2-(trifluoromethyl)phenyl)pivalamide] | – | – | 563 nM | – | 490 nM
CN(C)c1cccc(-c2ccc3nc(-c4ccc(C(F)(F)F)c(NC(=O)C(C)(C)C)c4)cn3n2)c1 [Example 256, N-(5-(6-(3-(dimethylamino)phenyl)imidazo[1,2-b]pyridazin-2-yl)-2-(trifluoromethyl)phenyl)pivalamide] | – | – | 1140 nM | – | 446 nM
Cc1ccc(-c2cn3nc(-c4cccc(O)c4)ccc3n2)cc1NC(=O)C(C)(C)C [Example 264, N-(5-(6-(3-hydroxyphenyl)imidazo[1,2-b]pyridazin-2-yl)-2-methylphenyl)pivalamide] | – | – | 2010 nM | – | 544 nM
CC(C)(C)C(=O)Nc1cc(-c2cn3nc(N4CCC(O)CC4)ccc3n2)ccc1C1CC1 [Example 273, N-(2-cyclopropyl-5-(6-(4-hydroxypiperidin-1-yl)imidazo[1,2-b]pyridazin-2-yl)phenyl)pivalamide] | 300 to 3000 nM | 3000 to 30000 nM | – | 3000 to 30000 nM | 442 nM

Second part, the compound after the results:

IC50 [1, 3] | IC50 [2, 4] | IC50 [2, 5] | IC50 [2, 6] | IC50 [1, 7] | SMILES
– | – | 547 nM | – | 230 nM | CC(C)(C)C(=O)Nc1cc(-c2cn3nc(N4CCN(S(C)(=O)=O)CC4)ccc3n2)ccc1C(F)(F)F [Example 234, N-(5-(6-(4-(methylsulfonyl)piperazin-1-yl)imidazo[1,2-b]pyridazin-2-yl)-2-(trifluoromethyl)phenyl)pivalamide]
< 300 nM | 300 to 3000 nM | 318 nM | < 300 nM | 271 nM | CC(C)(C)C(=O)Nc1cc(-c2cn3nc(N4CCC(F)(F)CC4)ccc3n2)ccc1C(F)(F)F [Example 235, N-(5-(6-(4,4-difluoropiperidin-1-yl)imidazo[1,2-b]pyridazin-2-yl)-2-(trifluoromethyl)phenyl)pivalamide]
– | – | 289 nM | – | 100 nM | CC(C)(C)C(=O)Nc1cc(-c2cn3nc(N4CCC(F)(F)C4)ccc3n2)ccc1C(F)(F)F [Example 236, N-(5-(6-(3,3-difluoropyrrolidin-1-yl)imidazo[1,2-b]pyridazin-2-yl)-2-(trifluoromethyl)phenyl)pivalamide]
– | – | 245 nM | – | 211 nM | CC(C)(C)C(=O)Nc1cc(-c2cn3nc(N4CCC(O)CC4)ccc3n2)ccc1C(F)(F)F [Example 237, N-(5-(6-(4-hydroxypiperidin-1-yl)imidazo[1,2-b]pyridazin-2-yl)-2-(trifluoromethyl)phenyl)pivalamide]
– | – | 625 nM | – | 230 nM | CC(C)(C)C(=O)Nc1cc(-c2cn3nc(-c4ccc(Cl)cc4)ccc3n2)ccc1C(F)(F)F [Example 238, N-(5-(6-(4-chlorophenyl)imidazo[1,2-b]pyridazin-2-yl)-2-(trifluoromethyl)phenyl)pivalamide]
– | – | 523 nM | – | 335 nM | Cc1ccc(-c2ccc3nc(-c4ccc(C(F)(F)F)c(NC(=O)C(C)(C)C)c4)cn3n2)cc1 [Example 239, N-(5-(6-p-tolylimidazo[1,2-b]pyridazin-2-yl)-2-(trifluoromethyl)phenyl)pivalamide]
– | – | 326 nM | – | 70 nM | CC(C)(C)C(=O)Nc1cc(-c2cn3nc(-c4ccccc4OC(F)(F)F)ccc3n2)ccc1C(F)(F)F [Example 240, N-(5-(6-(2-(trifluoromethoxy)phenyl)imidazo[1,2-b]pyridazin-2-yl)-2-(trifluoromethyl)phenyl)pivalamide]
– | – | 208 nM | – | 96 nM | Cc1ccccc1-c1ccc2nc(-c3ccc(C(F)(F)F)c(NC(=O)C(C)(C)C)c3)cn2n1 [Example 241, N-(5-(6-o-tolylimidazo[1,2-b]pyridazin-2-yl)-2-(trifluoromethyl)phenyl)pivalamide]
– | – | 306 nM | – | 295 nM | CC(C)(C)C(=O)Nc1cc(-c2cn3nc(-c4ccc(O)cc4)ccc3n2)ccc1C(F)(F)F [Example 243, N-(5-(6-(4-hydroxyphenyl)imidazo[1,2-b]pyridazin-2-yl)-2-(trifluoromethyl)phenyl)pivalamide]
< 300 nM | 300 to 3000 nM | – | 300 to 3000 nM | 231 nM | CC(C)(C)C(=O)Nc1cc(-c2cn3nc(-c4ccccc4F)ccc3n2)ccc1OC(F)(F)F [Example 248, N-(5-(6-(2-fluorophenyl)imidazo[1,2-b]pyridazin-2-yl)-2-(trifluoromethoxy)phenyl)pivalamide]
– | – | 129 nM | – | 105 nM | Cc1ccc(-c2cn3nc(-c4ccccc4Cl)ccc3n2)cc1NC(=O)C(C)(C)C [Example 258, N-(5-(6-(2-chlorophenyl)imidazo[1,2-b]pyridazin-2-yl)-2-methylphenyl)pivalamide]
– | – | 84 nM | – | 80 nM | Cc1ccc(-c2cn3nc(-c4ccccc4C(F)(F)F)ccc3n2)cc1NC(=O)C(C)(C)C [Example 259, N-(2-methyl-5-(6-(2-(trifluoromethyl)phenyl)imidazo[1,2-b]pyridazin-2-yl)phenyl)pivalamide]
– | – | 297 nM | – | 325 nM | Cc1ccc(-c2cn3nc(-c4cccc(C(F)(F)F)c4)ccc3n2)cc1NC(=O)C(C)(C)C [Example 260, N-(2-methyl-5-(6-(3-(trifluoromethyl)phenyl)imidazo[1,2-b]pyridazin-2-yl)phenyl)pivalamide]
– | – | 142 nM | – | 91 nM | Cc1ccc(-c2cn3nc(-c4cc(F)ccc4F)ccc3n2)cc1NC(=O)C(C)(C)C [Example 261, N-(5-(6-(2,5-difluorophenyl)imidazo[1,2-b]pyridazin-2-yl)-2-methylphenyl)pivalamide]
– | – | 342 nM | – | 103 nM | Cc1ccc(-c2cn3nc(-c4cc(Cl)ccc4F)ccc3n2)cc1NC(=O)C(C)(C)C [Example 262, N-(5-(6-(5-chloro-2-fluorophenyl)imidazo[1,2-b]pyridazin-2-yl)-2-methylphenyl)pivalamide]
– | – | 228 nM | – | 102 nM | Cc1ccc(-c2cn3nc(-c4ccccc4OC(F)(F)F)ccc3n2)cc1NC(=O)C(C)(C)C [Example 263, N-(2-methyl-5-(6-(2-(trifluoromethoxy)phenyl)imidazo[1,2-b]pyridazin-2-yl)phenyl)pivalamide]
– | – | 83 nM | – | 82 nM | Cc1ccc(-c2cn3nc(-c4cccnc4F)ccc3n2)cc1NC(=O)C(C)(C)C [Example 265, N-(5-(6-(2-fluoropyridin-3-yl)imidazo[1,2-b]pyridazin-2-yl)-2-methylphenyl)pivalamide]
